Data on 14 molecules can be found in US20230219965A1 (KSQ Therapeutics, Inc., priority 2020, published 2023).

Structures are written as SMILES. Where two headings read alike, the source gives them in different places.

Data set [1] in a line: ADME solubility determination in PBS at pH 2.0 and pH 7.4. It counts as physicochemical. Particulars: for solubility at 24 h: phosphate buffered saline, 25 °C, thermodynamic from solid. The essentials: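 Dried 10 mM DMSO stock residues taken up in PBS pH 7.4 or pH 2.0, shaken 24 h at 25° C. After centrifugation, supernatant quantified by LC-MS/MS against a standard of known concentration, with a dilution factor applied.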

For data set [2], the target named is USP1/UAF1 enzyme (Homo sapiens, UniProt O94782). The data set is described as follows: USP1/UAF1 deubiquitination assay (ubiquitin-rhodamine 110 substrate). Particulars: read-out: USP1 IC50 (Ub-Rho). The data set is classed as biochemical. The essentials: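 0.05 nM USP1/UAF1 was preincubated 10 min with compounds (dose response from 10 μM) in 50 mM Tris-HCl pH 7.8, 0.5 mM EDTA, 0.01% BSA, 1 mM DTT, 0.01% Tween-20. 150 nM ubiquitin-rhodamine 110 started the reaction, read kinetically 30 min at Ex480/Em540; IC50 by four-parameter fit versus no-enzyme and DMSO controls.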

Data set [3] can be described thus: Liver microsomal metabolic stability, human liver microsomes (HLM). Particulars: human, liver microsomes.
Experimental: Samples were prepared by adding 222.5 μL of a master solution (100 mM phosphate buffer and 1 mg/mL liver microsomes (HLM or RLM)) and 25 μL of a 10 mM NADPH solution to incubation plates, which were then warmed for 10 min. Each compound was separately dissolved in DMSO to prepare 10 mM stock solutions, which were then diluted to 100 μM with acetonitrile. A reaction was started by adding 2.5 μL of the 100 μM solution of each compound to separate incubation plates such that the final concentration of for each compound in each plate was 1 μM.
25 μL aliquots of each sample were taken at 0.5, 5, 10, 15, 20 and 30 minutes, and the reaction was stopped by adding 5 volumes of cold acetonitrile with IS (100 nM alprazolam, 200 nM caffeine and 100 nM tolbutamide). The samples were then centrifuged at 3,220 G for 30 minutes, and 100 μL of the supernatant fluid was mixed with 100 μL of ultra-pure H2O.
The samples were then analyzed by LC-MS/MS. Peak areas were determined from extracted ion chromatograms. Slope values (k) were determined by linear regression of the natural logarithm of the remaining percentage of the compound vs. incubation time curve. The in vitro half-life (in vitro t1/2) was determined from the slope value using the following equation:
A short description of data set [4]: Liver microsomal metabolic stability, rat liver microsomes (RLM). To be noted: rat, liver microsomes, t1/2 (min) in RLM, 1 μM compound, 1 mg/mL microsomes, NADPH. Background: Liver microsomes are a subcellular fraction often used to study metabolism.
For data set [5], the system named is Ub-PCNA levels in the nucleus of ES2 cells (USP1 activity). The data set is described as follows: ES2 Ub-PCNA immunofluorescence (IF) assay. The data set is classed as cell-based. Particulars: ES2 cells, 3 hours, Ub-PCNA immunofluorescence, read-out: USP1 IC50 (Ub-PCNA). Here is the method:
USP1 is a deubiquitinating enzyme that removes ubiquitin from mono-ubiquitinated Proliferating Cell Nuclear Antigen (Ub-PCNA). The levels of Ub-PCNA in the nucleus of cells can be used to assess the activity of USP1. An immunofluorescence assay can be established to monitor Ub-PCNA levels in the ovarian cancer cell line, ES2.
An assay can be performed by first plating 5000 ES2 cells per well in black 96 well plates (Corning #3904) and then incubating overnight at 37° C. and 5% CO2. Compounds, resuspended in DMSO, can be added to the cells, to a final DMSO concentration of 0.3%. Plates can be incubated at 37° C. and 5% CO2 for 3 hours.
Cells can be then fixed and stained by first removing the media from each plate and fixing the cells with −20° C. methanol for 5 minutes at room temperature. Fixation plates can be washed with Tris buffered saline with tween (Boston Bioproducts #IBB-855) 5 times for 5 minutes each. Plates can be blocked for 1 hour with 50 μl of Odyssey blocking buffer (Licor #327-50000) at room temperature with rocking. Block can be removed from all wells and 50 μl of primary antibody was added to each well. Ub-PCNA ab (Cell Signaling Technology #13439) can be diluted at 1:400 in Odyssey blocking buffer. Plates can be sealed and incubated overnight at 4° C. Primary antibodies can be removed from the plates and plates can be washed with Tris buffered saline with tween 5 times for 5 minutes. Plates can be stained for 1 hour at room temperature with rocking with 50 μl of secondary antibodies diluted 1:10,000 in Odyssey blocking buffer at room temperature (anti-rabbit Alexa 488). Antibodies can be removed from the plates and plates can be washed with Tris buffered saline with tween 3 times for 5 minutes. Plates can be washed once with DAPI (Chemometec #910-3012) stain diluted 1:5000 (Stock solution of 500 μg/ml) in tris buffered saline with tween for 5 minutes. DAPI stain can be removed and plates can be washed one additional time for 5 minutes with tris buffered saline with tween. Wash can be removed from the plate and 100 μl tris buffered saline with tween can be added back to all wells, Plates can be sealed with Foil seals or black plate seals and plates can be stored at 4° C. until they can be imaged.
Imaging of the plates can be performed by first locating the nuclei using the DAPI stain. A mask can be created by drawing a circle slightly smaller than each nucleus. Ub-PCNA intensities can be measured for each individual nucleus counted. A histogram of all Ub-PCNA nuclear intensities measured in untreated wells can be generated and a 95% cutoff can be established. This 95% cutoff can be used to determine the number of Positive cells that have Ub-PCNA values higher than the 95% cutoff. The number of positive cells can be expressed as a percentage by dividing by the total number of cells in the well. This percent positive value can be used to graph all data and to determine AC50 values.
USP1 is a deubiquitinating enzyme that removes ubiquitin from mono-ubiquitinated
Proliferating Cell Nuclear Antigen (Ub-PCNA). The levels of Ub-PCNA in the nucleus of cells was used to assess the activity of USP1. An immunofluorescence assay was established to monitor Ub-PCNA levels in the ovarian cancer cell line, ES2.
This assay was performed by first plating 5000 ES2 cells per well in black 96 well plates (Corning #3904) and then incubated overnight at 37° C. and 5% CO2. Compounds, resuspended in DMSO, were added to the cells, to a final DMSO concentration of 0.3%. Plates were incubated at 37° C. and 5% CO2 for 3 hours.
Cells were then fixed and stained by first removing the media from each plate and fixing the cells with −20° C. methanol for 5 minutes at room temperature. Following fixation plates were washed with Tris buffered saline with tween (Boston Bioproducts ABB-855) 5 times for 5 minutes each. Plates were blocked for 1 hour with 50μ.1 of Odyssey blocking buffer (Licor #327-50000) at room temperature with rocking. […]

The mark [6] stands for this setting: pH 2, aqueous buffer, PBS pH 2.0, 25° C., read-out: Solubility at pH 2.0.
[7] abbreviates: pH 7.4, aqueous buffer, PBS pH 7.4, 25° C., read-out: Solubility at pH 7.4.

USP1/UAF1 enzyme, sequence (O94782 whole entry): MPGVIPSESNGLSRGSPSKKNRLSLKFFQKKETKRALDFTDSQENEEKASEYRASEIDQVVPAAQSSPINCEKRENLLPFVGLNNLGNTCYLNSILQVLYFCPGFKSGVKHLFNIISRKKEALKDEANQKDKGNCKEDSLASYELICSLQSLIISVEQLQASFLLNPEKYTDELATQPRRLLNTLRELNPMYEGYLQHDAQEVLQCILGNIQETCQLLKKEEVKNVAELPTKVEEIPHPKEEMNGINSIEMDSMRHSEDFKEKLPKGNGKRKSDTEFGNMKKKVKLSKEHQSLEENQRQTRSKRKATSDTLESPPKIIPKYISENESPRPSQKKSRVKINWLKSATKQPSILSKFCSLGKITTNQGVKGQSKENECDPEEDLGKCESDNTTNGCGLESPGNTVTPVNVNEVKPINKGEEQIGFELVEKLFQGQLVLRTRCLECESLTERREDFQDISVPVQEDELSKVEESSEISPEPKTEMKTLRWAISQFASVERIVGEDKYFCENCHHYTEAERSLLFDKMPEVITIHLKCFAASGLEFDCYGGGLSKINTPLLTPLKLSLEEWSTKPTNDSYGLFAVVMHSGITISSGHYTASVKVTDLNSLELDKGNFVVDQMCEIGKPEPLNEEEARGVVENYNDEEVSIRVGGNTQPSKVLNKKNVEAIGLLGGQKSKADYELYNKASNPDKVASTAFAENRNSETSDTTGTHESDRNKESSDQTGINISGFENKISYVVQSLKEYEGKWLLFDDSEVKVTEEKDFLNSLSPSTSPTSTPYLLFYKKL
USP1/UAF1 enzyme, sequence (Q8TAF3 whole entry partner): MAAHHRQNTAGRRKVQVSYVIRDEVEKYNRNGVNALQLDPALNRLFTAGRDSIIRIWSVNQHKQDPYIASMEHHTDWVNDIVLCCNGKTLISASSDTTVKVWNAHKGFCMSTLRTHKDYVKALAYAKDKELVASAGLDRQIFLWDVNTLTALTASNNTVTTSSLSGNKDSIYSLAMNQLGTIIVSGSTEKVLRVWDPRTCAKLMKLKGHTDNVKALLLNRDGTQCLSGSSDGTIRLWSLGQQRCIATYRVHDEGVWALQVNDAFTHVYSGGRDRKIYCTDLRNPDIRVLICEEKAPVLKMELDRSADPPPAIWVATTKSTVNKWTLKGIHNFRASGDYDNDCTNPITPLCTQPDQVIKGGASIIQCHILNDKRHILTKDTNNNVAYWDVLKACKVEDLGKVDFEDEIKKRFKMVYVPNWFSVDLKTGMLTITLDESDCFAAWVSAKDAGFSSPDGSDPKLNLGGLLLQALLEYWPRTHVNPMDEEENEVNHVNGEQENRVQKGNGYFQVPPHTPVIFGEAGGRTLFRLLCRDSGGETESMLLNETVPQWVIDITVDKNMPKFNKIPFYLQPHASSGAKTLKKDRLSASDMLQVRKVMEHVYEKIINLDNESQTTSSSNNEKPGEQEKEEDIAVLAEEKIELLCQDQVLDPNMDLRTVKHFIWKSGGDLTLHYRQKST

One may read the solubility as how much of the substance goes into solution per volume. Usually IC50 stands for the concentration at which inhibition is half-maximal. The term half-life denotes how long it takes for the measured level to halve. The low end stands for rapid decline, the high end for slow decline. On to `COc1ncnc(C2CC2)c1-c1cc2n(n1)CCC(C)N2Cc1ccc(-c2nc(C(F)(F)F)cn2C)cc1` (racemic) [Example 48, 2-(4-cyclopropyl-6-methoxypyrimidin-5-yl)-5-methyl-4-(4-(1-methyl-4-(trifluoromethyl)-1H-imidazol-2-yl)benzyl)-4,5,6,7-tetrahydropyrazolo[1,5-α]pyrimidine], for which the solubility at 24 h in data set [1] (setting [6]) and in data set [1] (setting [7]) was at least 10 µM in each case. In addition, the IC50 is under 100 nM in data set [2] and under 100 nM in data set [5] (Homo sapiens, ES-2). Also, the half-life at 1 μM in data set [3] and in data set [4] was under 25 min in each case.
For the molecule `COc1ncnc(C2CC2)c1-c1cc2n(n1)C(C)CCN2Cc1ccc(-c2nc(C(F)(F)F)cn2C)cc1` (racemic) [Example 51, 2-(4-cyclopropyl-6-methoxypyrimidin-5-yl)-7-methyl-4-(4-(1-methyl-4-(trifluoromethyl)-1H-imidazol-2-yl)benzyl)-4,5,6,7-tetrahydropyrazolo[1,5-α]pyrimidine], the solubility at 24 h was at least 10 µM in data set [1] (setting [6]) and under 10 µM in data set [1] (setting [7]). In addition, the IC50 was under 100 nM in data set [2] and under 100 nM in data set [5] (Homo sapiens, ES-2). In addition, the half-life at 1 μM in data set [3] and in data set [4] was under 25 min in each case.
With `CCn1cc(C(F)(F)F)nc1-c1ccc([C@H](C)N2CCCn3nc(-c4c(Cl)cnn4C(C)C)cc32)cc1` (single isomer, unassigned) [Example 67], the results for the solubility at 24 h in data set [1] (setting [6]) and in data set [1] (setting [7]) were at least 10 µM and under 10 µM, respectively. Further, the IC50 in data set [2] was under 100 nM; in data set [5] (Homo sapiens, ES-2), under 100 nM. The half-life at 1 μM in data set [3] and in data set [4] was under 25 min each time.
As for `CCn1cc(C(F)(F)F)nc1-c1ccc([C@@H](C)N2CCCn3nc(-c4c(Cl)cnn4C(C)C)cc32)cc1` (single isomer, unassigned) [Example 68], the solubility at 24 h in data set [1] (setting [6]) and in data set [1] (setting [7]) was under 10 µM each time. Besides, the IC50 was under 100 nM in data set [2] and under 100 nM in data set [5] (Homo sapiens, ES-2). Moreover, the half-life at 1 μM in data set [3] and in data set [4] was under 25 min in each case.
Consider `CCn1cc(C(F)(F)F)nc1-c1ccc(N[C@@H]2CCCn3nc(-c4c(Cl)cnn4C(C)C)cc32)cc1` (single isomer, unassigned) [Example 238], for which the solubility at 24 h in data set [1] (setting [6]) and in data set [1] (setting [7]) was under 10 µM each time. For the same molecule, the IC50 is under 100 nM in data set [2] and under 100 nM in data set [5] (Homo sapiens, ES-2). Further, the half-life at 1 μM in data set [3] and in data set [4] was over 25 min throughout.
Consider `CCn1cc(C(F)(F)F)nc1-c1ccc(N[C@H]2CCCn3nc(-c4c(Cl)cnn4C(C)C)cc32)cc1` (single isomer, unassigned) [Example 239], for which the solubility at 24 h in data set [1] (setting [6]) and in data set [1] (setting [7]) was under 10 µM in each case. In addition, the IC50 in data set [2] was under 100 nM; in data set [5] (Homo sapiens, ES-2), under 100 nM. The half-life at 1 μM in data set [3] and in data set [4] was over 25 min throughout.
As for `CCn1cc(C(F)(F)F)nc1-c1ccc(N[C@H]2CCCn3nc(-c4c(OC)ncnc4C4CC4)cc32)cc1` (single isomer, unassigned) [Example 242], the solubility at 24 h in data set [1] (setting [6]) and in data set [1] (setting [7]) was under 10 µM throughout. The concentration for half-maximal inhibition (IC50) in data set [2] is under 100 nM; in data set [5] (Homo sapiens, ES-2), 100 to 500 nM. Also, the half-life at 1 μM in data set [3] and in data set [4] was over 25 min in each case.
For the molecule `CCn1cc(C(F)(F)F)nc1-c1ccc(N[C@@H]2CCCn3nc(-c4c(OC)ncnc4C4CC4)cc32)cc1` (single isomer, unassigned) [Example 243], the solubility at 24 h in data set [1] (setting [6]) was at least 10 µM; in data set [1] (setting [7]), under 10 µM. Also, the concentration for half-maximal inhibition (IC50) in data set [2] was under 100 nM; in data set [5] (Homo sapiens, ES-2) it was 100 to 500 nM. Also, the half-life at 1 μM in data set [3] and in data set [4] was over 25 min throughout.
As for `CCn1cc(C(F)(F)F)nc1-c1ccc(O[C@H]2CCCn3nc(-c4c(OC)ncnc4C4CC4)cc32)cc1F` (single isomer, unassigned) [Example 263], the solubility at 24 h in data set [1] (setting [6]) and in data set [1] (setting [7]) was under 10 µM each time. Besides, the half-inhibitory concentration (IC50) in data set [2] is under 100 nM; in data set [5] (Homo sapiens, ES-2), under 100 nM. Further, the half-life at 1 μM in data set [3] and in data set [4] was over 25 min throughout.
With `CCn1cc(C(F)(F)F)nc1-c1ccc(O[C@@H]2CCCn3nc(-c4c(OC)ncnc4C4CC4)cc32)cc1F` (single isomer, unassigned) [Example 264], the solubility at 24 h in data set [1] (setting [6]) was at least 10 µM; in data set [1] (setting [7]), under 10 µM. Besides, the IC50 was under 100 nM in data set [2] and 100 to 500 nM in data set [5] (Homo sapiens, ES-2). Also, the half-life at 1 μM in data set [3] and in data set [4] was over 25 min in each case.
In the case of `CCn1cc(C(F)(F)F)nc1-c1ccc([C@H](C)N2C(=O)CCn3nc(-c4c(C#N)cnn4C(C)C)cc32)cc1F` (single isomer, unassigned) [Example 325], the solubility at 24 h in data set [1] (setting [6]) and in data set [1] (setting [7]) was under 10 µM in each case. In addition, the IC50 was in the range of 100 to 500 nM in data set [2] and 100 to 500 nM in data set [5] (Homo sapiens, ES-2). In addition, the half-life at 1 μM in data set [3] and in data set [4] was over 25 min in each case.
For the molecule `CCn1cc(C(F)(F)F)nc1-c1ccc([C@H](C)n2c(=O)ccn3nc(-c4c(OC)ncnc4C4CC4)cc23)cc1F` (single isomer, unassigned) [Example 334], the solubility at 24 h in data set [1] (setting [6]) and in data set [1] (setting [7]) was under 10 µM each time. Moreover, the IC50 is under 100 nM in data set [2] and 100 to 500 nM in data set [5] (Homo sapiens, ES-2). Further, the half-life at 1 μM in data set [3] and in data set [4] was over 25 min each time.
Consider `Cc1cnn(C(C)C)c1-c1cc2n(n1)CCCN2Cc1ccc(-c2nc(C(F)(F)F)cn2C)cc1` [Example 47, 2-(1-isopropyl-4-methyl-1H-pyrazol-5-yl)-4-(4-(1-methyl-4-(trifluoromethyl)-1H-imidazol-2-yl)benzyl)-4,5,6,7-tetrahydropyrazolo[1,5-α]pyrimidine], for which the “Solubility at pH 2.0 (μM)” value in data set [1] (PBS pH 2.0, 25° C., 24 hours) is on record as “++ (“++” indicates 10 μM or greater)”. Further, the “Solubility at pH 7.4 (μM)” value in data set [1] (PBS pH 7.4, 25° C., 24 hours) is recorded as “+ (“+” indicates less than 10 μM)”. Further, the IC50 in data set [2] and in data set [5] was under 100 nM throughout.
Take `CCn1cc(C(F)(F)F)nc1-c1ccc(CN2C(=O)CCn3nc(-c4c(Cl)cnn4C(C)(C)COC)cc32)cc1F` [Example 162]: the solubility at 24 h in data set [1] (setting [6]) and in data set [1] (setting [7]) was at least 10 µM each time. Besides, the IC50 in data set [2] was under 100 nM; in data set [5] (Homo sapiens, ES-2) it was 100 to 500 nM. The molecule also gave a half-life at 1 μM in data set [4] of under 25 min.
